The values that follow come from PubChem BioAssay (NCI).

Among the test systems are DU-145 prostate; BT-549 breast; SN12C renal; OVCAR-5 ovarian; IGROV1 ovarian; SNB-19 CNS; COLO 205 colon; A549 NSCLC; LOX IMVI melanoma; HOP-62 NSCLC; A498 renal; K-562 leukemia; U251 CNS.
Common to all, as to test: NCI-60 cell line screen, 48 h

Each structure is given as a SMILES string. Where “and” joins values, the source holds several entries; their conditions need not be identical. Identical values can stand only once.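 Assay format: 96-well plates, 48-hour exposure. Definition used: TGI = concentration required for complete inhibition of growth.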 Some results are limits rather than exact numbers.

On to `CCCCCCCCCCCC(=O)OC[C@@H](C[As](=O)(O)O)OC(=O)CCCCCCCCCCC`, for which the TGI amounted to 36.6 µM in the assay on DU-145 prostate; 9.91 µM in the assay on BT-549 breast; 19.8 µM with SN12C renal; 30.8 µM in the assay on OVCAR-5 ovarian; 3.8 µM with IGROV1 ovarian; 10.8 µM in the assay with SNB-19 CNS. Moreover, the TGI is 36.6 µM with COLO 205 colon; 31.3 µM with A549 NSCLC; 18.1 µM in the assay with LOX IMVI melanoma; 28.8 µM in the assay with HOP-62 NSCLC; 24.3 µM with A498 renal; more than 55.1 µM in the assay on K-562 leukemia. Further, in the assay with U251 CNS, the TGI came out at 4.42 µM.

For `COC(=O)C1=C(OC)[C@H]2C#C/C=C\C#C[C@@H]3Nc4c(cc(O)c5c4C(=O)c4ccccc4C5=O)[C@]24O[C@@]34[C@H]1C`, the TGI was less than 0.01 µM with DU-145 prostate; less than 0.0339 µM with BT-549 breast; less than 0.01 µM with SN12C renal; 0.0311 µM in the assay with OVCAR-5 ovarian; 0.167 µM with IGROV1 ovarian; 0.014 µM in the assay on COLO 205 colon. For the same molecule, the TGI in the assay on A549 NSCLC was 0.111 µM; with LOX IMVI melanoma, less than 0.01 µM; with HOP-62 NSCLC, less than 0.01 µM; with A498 renal, less than 0.01 µM; in the assay on K-562 leukemia, 0.0139 µM; with U251 CNS it was less than 0.0133 µM.

`CS(=O)(=O)N1CC(CCl)c2ccc(O)cc21` (stereo unspecified): the TGI in the assay with DU-145 prostate amounted to 11.3 µM; in the assay on BT-549 breast, 8.35 µM; with SN12C renal it was 14.5 µM; in the assay with OVCAR-5 ovarian, 16.3 µM; with IGROV1 ovarian it was 4.5 µM; with COLO 205 colon, 4.34 µM. For the same molecule, the TGI in the assay on A549 NSCLC was 11.1 µM; in the assay with LOX IMVI melanoma it was 14.4 µM; in the assay with HOP-62 NSCLC, 13 µM; with A498 renal, 3.78 µM; with K-562 leukemia it was more than 100 µM; in the assay with U251 CNS, 10.3 µM.

Regarding `CCC1CC(O)c2c(O)c3c(c(O)c2C1O)C(=O)c1cccc(O)c1C3=O` (stereo unspecified) (tested in a mixture with another compound), the TGI in the assay with DU-145 prostate was 0.135 µM and 0.651 µM; with BT-549 breast, 0.0704 µM; in the assay on SN12C renal it was 1.05 µM; in the assay with OVCAR-5 ovarian it was 0.0301 µM; in the assay on IGROV1 ovarian it was 0.239 µM and 1.02 µM; in the assay with SNB-19 CNS, 0.929 µM and 1.34 µM. Further, the TGI in the assay on COLO 205 colon is 0.0939 µM and 0.019 µM; in the assay on LOX IMVI melanoma it was 0.0509 µM; in the assay on HOP-62 NSCLC, 0.197 µM and 1.79 µM; in the assay with A498 renal, 0.03 µM; in the assay on K-562 leukemia it was 0.0319 µM; in the assay with U251 CNS, 0.23 µM and 0.331 µM.

Take `C/C(=N\NC(=S)N1CCCC1)c1nc2ncccc2[nH]1`: the TGI in the assay with DU-145 prostate is 13.1 µM; in the assay with BT-549 breast it was 13 µM; in the assay with SN12C renal, more than 100 µM; in the assay with OVCAR-5 ovarian, 20.7 µM; with SNB-19 CNS, 17.1 µM; with COLO 205 colon, 28.5 µM. Moreover, the TGI was more than 100 µM with A549 NSCLC; 13.1 µM in the assay with LOX IMVI melanoma; 24.6 µM in the assay with HOP-62 NSCLC; 27.1 µM in the assay on A498 renal; 37 µM with K-562 leukemia; 13.5 µM in the assay with U251 CNS.

Regarding `S=C1NCCN1C(=S)Nc1ccccc1`, the TGI with DU-145 prostate, in the assay with BT-549 breast, in the assay on SN12C renal, with OVCAR-5 ovarian, in the assay with IGROV1 ovarian and with COLO 205 colon was more than 100 µM in each case. In addition, the TGI in the assay on A549 NSCLC, in the assay on LOX IMVI melanoma, in the assay with HOP-62 NSCLC, in the assay with A498 renal, in the assay on K-562 leukemia and in the assay with U251 CNS was more than 100 µM in each case.

Turning to `O=Cc1ccc(-c2ccc(-c3ccc(CO)s3)o2)s1`, the TGI in the assay with DU-145 prostate was more than 71.6 µM; with BT-549 breast, 67.9 µM; in the assay with SN12C renal, more than 88.8 µM; in the assay with SNB-19 CNS, more than 100 µM; in the assay with COLO 205 colon, more than 85.7 µM; with A549 NSCLC, 98.8 µM. Moreover, the TGI with LOX IMVI melanoma is 16.2 µM; in the assay with HOP-62 NSCLC, more than 84.3 µM; in the assay on A498 renal it was 0.353 µM; in the assay on K-562 leukemia, more than 22.2 µM; with U251 CNS it was more than 42.1 µM.

For `COC(=O)[C@@H](NC(=O)N(Cc1ccccc1)C[C@H](CC(C)C)NC(=O)[C@@H](NC(=O)OC(C)(C)C)C(C)C)C(C)C`, the TGI in the assay on DU-145 prostate, with BT-549 breast, with OVCAR-5 ovarian, in the assay with SNB-19 CNS, in the assay with COLO 205 colon and in the assay with A549 NSCLC was more than 100 µM in each case. In addition, the TGI with LOX IMVI melanoma, with HOP-62 NSCLC, in the assay on A498 renal, in the assay with K-562 leukemia and in the assay on U251 CNS was more than 100 µM each time.

On to `O=c1cc(NNc2cccc(Cl)c2)[nH]c(=O)[nH]1`, for which the TGI with DU-145 prostate, in the assay with BT-549 breast, in the assay on OVCAR-5 ovarian, in the assay with IGROV1 ovarian, in the assay with SNB-19 CNS and in the assay on COLO 205 colon was more than 100 µM in each case. Moreover, the TGI with A549 NSCLC was more than 100 µM; in the assay on LOX IMVI melanoma, 29.6 µM; in the assay on A498 renal, more than 100 µM; in the assay on K-562 leukemia, more than 100 µM; in the assay with U251 CNS, more than 100 µM.
